From patent US20030055010A1, “Preserving active fungicide in an aqueous solution” (priority 1999, published 2003)

Assay: Rest activity of natamycin over time in water based polymer dispersion mixtures (HPLC)
Assay type: physicochemical
Description: This example describes a method to prepare a formulation suitable for use as a food coating and which was developed to test the stability of natamycin over time in relation to the added base polymers.
The mixtures were made with an electric top stirrer, type RW 20 DZM, from Janke & Kunkel equipped with a rushton stirrer.
The mixtures were made by adding 500 gram Mowilith DM2KL, 1000 gram of the latex polymer, to be tested together with 4 gram Delvocid® and a protective additive.
The total weight was made up to 2000 gram with tap water.
This crude mixture was mixed for 5 minutes to obtain a homogeneous mixture and was then adjusted to pH 4-7 with ammonia.
The mixture was stored at 18° C. in a closed pot in the dark.
The prepared mixtures were measured over time for the amount of active natamycin using the test described in Example 2.
This Example describes the method that was used to analyze the amount of active natamycin in a water based mixture of several components.
The method was a HPLC analysis based on the International Dairy Federation (Provisional ADF Standard 140, 1987) with a Lichrosorb RP 8 column. Detection was by UV at 303 nm with a range of 0.1-4 mg/L with an injection volume of 20 μl.
Sample preparation was carried out by weighing 2 g prepared formulation with an accuracy of 1 mg in a measuring flask. 4 ml demineralized water (demiwater) was added and the mixture was stirred for […] a homogeneous suspension.
Subsequently 80 ml methanol was added and the mixture was stirred for 10 minutes. After ultrasonic treatment the solution was filled up to 100 ml with demiwater and the diluted and/or filtered (0.2 μm) before injecting.
The amount of active natamycin as ppm was calculated against a series of standards.
To test the stability of natamycin in combination with water based polymer dispersions mixtures, mixtures were made according to Example 1, and the rest activity of natamycin measured according to Example 2. The results are set out in table 1 (rest activity in %).

Rest activity of natamycin over time (Basepolymer 2, EDTA-disodiumsalt 0 ppm, 0 weeks): 100%
Rest activity of natamycin over time (Basepolymer 2, EDTA-disodiumsalt 0 ppm, 1 week): 70%
Rest activity of natamycin over time (Basepolymer 2, EDTA-disodiumsalt 0 ppm, 3 weeks): 22%
Rest activity of natamycin over time (Basepolymer 2, EDTA-disodiumsalt 0 ppm, 5 weeks): 5%
Rest activity of natamycin over time (Basepolymer 2, EDTA-disodiumsalt 0 ppm, 7 weeks): 2%
Rest activity of natamycin over time (Basepolymer 2, EDTA-disodiumsalt 100 ppm, 0 weeks): 100%
Rest activity of natamycin over time (Basepolymer 2, EDTA-disodiumsalt 100 ppm, 1 week): 99%
Rest activity of natamycin over time (Basepolymer 2, EDTA-disodiumsalt 100 ppm, 3 weeks): 98%
Rest activity of natamycin over time (Basepolymer 2, EDTA-disodiumsalt 100 ppm, 5 weeks): 88%
Rest activity of natamycin over time (Basepolymer 2, EDTA-disodiumsalt 100 ppm, 7 weeks): 82%
Rest activity of natamycin over time (Basepolymer 2, EDTA-disodiumsalt 250 ppm, 0 weeks): 100%
Rest activity of natamycin over time (Basepolymer 2, EDTA-disodiumsalt 250 ppm, 1 week): 97%
Rest activity of natamycin over time (Basepolymer 2, EDTA-disodiumsalt 250 ppm, 3 weeks): 95%
Rest activity of natamycin over time (Basepolymer 2, EDTA-disodiumsalt 250 ppm, 5 weeks): 88%
Rest activity of natamycin over time (Basepolymer 2, EDTA-disodiumsalt 250 ppm, 7 weeks): 85%
Rest activity of natamycin over time (Basepolymer 2, EDTA-disodiumsalt 500 ppm, 0 weeks): 100%
Rest activity of natamycin over time (Basepolymer 2, EDTA-disodiumsalt 500 ppm, 1 week): 95%
Rest activity of natamycin over time (Basepolymer 2, EDTA-disodiumsalt 500 ppm, 3 weeks): 92%
Rest activity of natamycin over time (Basepolymer 2, EDTA-disodiumsalt 500 ppm, 5 weeks): 86%
Rest activity of natamycin over time (Basepolymer 2, EDTA-disodiumsalt 500 ppm, 7 weeks): 80%
Rest activity of natamycin over time (Basepolymer 2, EDTA-disodiumsalt 750 ppm, 0 weeks): 100%
Rest activity of natamycin over time (Basepolymer 2, EDTA-disodiumsalt 750 ppm, 1 week): 96%
Rest activity of natamycin over time (Basepolymer 2, EDTA-disodiumsalt 750 ppm, 3 weeks): 95%
Rest activity of natamycin over time (Basepolymer 2, EDTA-disodiumsalt 750 ppm, 5 weeks): 88%
Rest activity of natamycin over time (Basepolymer 2, EDTA-disodiumsalt 750 ppm, 7 weeks): 82%
Rest activity of natamycin over time (Basepolymer 2, EDTA-disodiumsalt 1000 ppm, 0 weeks): 100%
Rest activity of natamycin over time (Basepolymer 2, EDTA-disodiumsalt 1000 ppm, 1 week): 96%
Rest activity of natamycin over time (Basepolymer 2, EDTA-disodiumsalt 1000 ppm, 3 weeks): 95%
Rest activity of natamycin over time (Basepolymer 2, EDTA-disodiumsalt 1000 ppm, 5 weeks): 88%
Rest activity of natamycin over time (Basepolymer 2, EDTA-disodiumsalt 1000 ppm, 7 weeks): 81%
Rest activity of natamycin over time (Basepolymer 2, EDTA-disodiumsalt 2000 ppm, 0 weeks): 100%
Rest activity of natamycin over time (Basepolymer 2, EDTA-disodiumsalt 2000 ppm, 1 week): 97%
Rest activity of natamycin over time (Basepolymer 2, EDTA-disodiumsalt 2000 ppm, 3 weeks): 94%
Rest activity of natamycin over time (Basepolymer 2, EDTA-disodiumsalt 2000 ppm, 5 weeks): 88%
Rest activity of natamycin over time (Basepolymer 2, EDTA-disodiumsalt 2000 ppm, 7 weeks): 79%
Rest activity of natamycin over time (Basepolymer 2, EDTA-disodiumsalt 5000 ppm, 0 weeks): 100%
Rest activity of natamycin over time (Basepolymer 2, EDTA-disodiumsalt 5000 ppm, 1 week): 97%
Rest activity of natamycin over time (Basepolymer 2, EDTA-disodiumsalt 5000 ppm, 3 weeks): 95%
Rest activity of natamycin over time (Basepolymer 2, EDTA-disodiumsalt 5000 ppm, 5 weeks): 88%
Rest activity of natamycin over time (Basepolymer 2, EDTA-disodiumsalt 5000 ppm, 7 weeks): 81%
Rest activity of natamycin over time (basepolymer 3, With BHA 1000 ppm, 1 week): 96%
Rest activity of natamycin over time (basepolymer 3, With BHA 1000 ppm, 2 weeks): 92%
Rest activity of natamycin over time (basepolymer 3, With BHA 1000 ppm, 4 weeks): 84%
Rest activity of natamycin over time (basepolymer 3, With tocopherol 1000 ppm, 1 week): 92%
Rest activity of natamycin over time (basepolymer 3, With tocopherol 1000 ppm, 2 weeks): 83%
Rest activity of natamycin over time (basepolymer 3, With tocopherol 1000 ppm, 4 weeks): 76%
Rest activity of natamycin over time (basepolymer 3, Without additive, 1 week): 88%
Rest activity of natamycin over time (basepolymer 3, Without additive, 2 weeks): 70%
Rest activity of natamycin over time (basepolymer 3, Without additive, 4 weeks): 50%
SMILES: C[C@@H]1C/C=C/C=C/C=C/C=C/[C@H](O[C@@H]2O[C@H](C)[C@@H](O)[C@H](N)[C@@H]2O)C[C@@H]2O[C@](O)(C[C@@H](O)C[C@H]3O[C@@H]3/C=C/C(=O)O1)C[C@H](O)[C@H]2C(=O)O [natamycin]
